In paper PMC7497641, “Neurotropic activity and safety of methylene-cycloalkylacetate (MCA) derivative 3-(3-allyl-2-methylenecyclohexyl) propanoic acid” (ACS Chemical Neuroscience, 2020):

Assays:
Experiment in all cases: PhosphoSens CSox based kinase assay
Format in all cases: biochemical
CDK5 = molecular target: T1, CDK5 (Homo sapiens, UniProt Q00535); details: 5 μM HU-MCA-13
T1 construct: CDK5/p25, amino acids 1 -292/99 -307, Carna; purchased Carna 04-106
Text: (§1) The initial focus was to measure the modulatory activity in vitro of MCA-13 on protein kinases which were reported to be involved in induction of neurite outgrowth.[18],[43] To do this, we took advantage of a powerful method to measure the activity of recombinant protein kinases using a homogeneous and continuous (kinetic) format, where the level of chelation-enhanced fluorescence (CHEF) is directly proportional to the amount of phosphorylated, real-time sensors consisting of sulfonamido-oxine (Sox) chromophore linked to a peptide or protein substrates of selective kinases.[44] This assay is ideal for elucidating drug mechanism of action and is increasingly being applied earlier in the drug development workflow to address off target effects and/or the challenges and opportunities for next generation protein kinase inhibitors.[45] Since neurotrophins induce neurite outgrowth by activating the different tropomyosin kinase receptors (Trk), and small molecules agonists of Trk receptors can selectively activate Trks,[46] we first investigated the ability of HU-MCA-13 to modulate TRKA, TRKB and TRKC phosphorylation activities (Supporting Information, Figure S3-2). […] The TRKs constructs used in the assay contained only the intracellular kinase domain (amino acids 442–786) and therefore presently we cannot exclude that HU-MCA-13 may interact with the TRKs extracellular domain thereby inducing the conformational change required for the kinase domain activation. […] Moreover, no effects of HU-MCA-13were found on other kinases (ASK1, ERK2, JNK3, p38α, CDK5, KDR-VEGFR, AKT1, GSK3β, PDGFRβ, PKACα, PKC, CK1, IKKβ) which stimulate neurite outgrowth. Also, no effects were observed of HU-MCA-13 on kinases (EGFR, IGF1R, FGFR 1 and 2, CAMK2α,) which inhibit neurite outgrowth or calcineurin phosphatase which dephosphorylates the neurite outgrowth stimulatory protein, cofilin.[47]
(§2) MCA-13 safety b y in vitro eval uati on usi ng Phos pho Sens®C Soxb ased kinase […]
(§3) Method: Kinase Activity Measurements
(§4) Kinase activity was measured continuously using the PhosphoSens®technology (AssayQuant Technologies Inc., Marlborough, MA) according to the manufacturers’ recommendations (http://www.assayquant.com/) . This one-step homogeneous assay use s chelation-enh anced fluorescence via optimized substrate sensors unique for each kinase, containing the unnatural fluorogenic amino-acid Sox.
(§5) The following kinases which, upon stimulation or inhibition with small molecule modulators, induced neurite outgrowth, were obtained from different companies and were used in this study at the following concentrations: 2.
(§6) 25 µL final reaction volume including : 2.5 µl Sox-based substrate (10 x), 17.5 µl reaction mix with AT P, 5.0 µL Kinase [5x in EDB (Enzyme Dilution Buffer : 20 mM TRIS, pH 8.0, 0.01% Brij -35, 0.1 mM EGTA, 5% Glycerol, 1 mM DTT, 1 mg/mL Bovine Serum Albumin]. 5-45 min preincubation (all except EDB/kinase) at 30 °C of substrate in reaction mix and ATP ensuring that the progress kinetic curve for the background fluorescence w as flat. Reaction was run at 30 °C for […]
(§7) Final Reaction Conditions.
(§8) Protein kinase activity was determined in 54 mM HEPES, pH 7.5 1 mM ATP 1.2 mM DTT (none in ASK1) 0.012% Brij-35 1% glycerol 0.2 mg/ml BSA 0.52 mM EGTA (none in assays of CAMK2α, PKCε, PKCι, Calcineurin A/B) 140 µM phosphatidylserine/3.8 µM diacylglycerol (PKCε, PKCι only) 5 ng/µl calmodulin/0.4 mM CaCl2 (CAMK2α, Calcineurin A/B only) 10 mM […]
(§9) IKKβ, AKT1, GSK3β, PKCε, PKCι, PKACα, KDR, CK1δ, EGFR, ASK1, IGF1R, CAMK2α, DLK, FGFR2, FGFR1) in the presence or absence of 5 µ M H U-MCA-13 test compound. All components e xcept enzyme were equilibrated to 30 °C prior to setting up reactions run in Corning, 384-well, white flat round bottom polystyrene NBS microplates (Cat. #3824) after sealing using optically-clear adhesive film [TopSealA -Plus plate seal, PerkinElmer (Cat. #6050185)], applied with a roller to eliminate evaporation and resulting drift. Europium was added to a final […]

CAMK2α = molecular target: T2, CAMK2α (Homo sapiens, UniProt Q9UQM7); details: 5 μM HU-MCA-13
T2 construct: amino acids 1-478, Carna (cat. & lot #: 02)
Text: as §1, §2, §3, §4, §5, §6, §7, §8, §9

CK1 = molecular target: T3, CK1 (Homo sapiens, UniProt P48730); details: 5 μM HU-MCA-13
T3 construct: CK1δ, amino acids 1 -294, Carna; purchased Carna 03-103
Text: as §1, §2, §3, §4, §5, §6, §7, §8, §9

TRK B = molecular target: T4, TRK B (Homo sapiens, UniProt Q16620); details: 5 μM HU-MCA-13; intracellular kinase domain
T4 construct: TRKB, amino acids 456 -822, BPS Bio; purchased BPS Bio 40281 (lot 130826)
Text: as §1, §2, §3, §4, §5, §6, §7, §8, §9

GSK3β = molecular target: T5, GSK3β (Homo sapiens, UniProt P49841); details: 5 μM HU-MCA-13
T5 construct: GSK3β, amino acids 1 -420, Carna (cat. & lot #: 04-141/13CBS-; purchased Carna 04-141
Text: as §1, §2, §3, §4, §5, §6, §7, §8, §9

TRKA = molecular target: T6, TRKA (Homo sapiens, UniProt P04629); details: 5 μM HU-MCA-13; intracellular kinase domain
T6 construct: purchased BPS Bio 40280 (lot 151113G)
Text: as §1, §2, §3, §4, §5, §6, §7, §8, §9

PDGFRβ = molecular target: T7, PDGFRβ (Homo sapiens, UniProt P09619); details: 5 μM HU-MCA-13
T7 construct: PDGFRβ, amino acids 557 -1106, Carna; purchased Carna 08-158
Text: as §1, §2, §3, §4, §5, §6, §7, §8, §9

IGF1R = molecular target: T8, IGF1R (Homo sapiens, UniProt P08069); details: 5 μM HU-MCA-13
T8 construct: amino acids 959-1367, Carna (cat. & lot #: 08); purchased Carna 08-141
Text: as §1, §2, §3, §4, §5, §6, §7, §8, §9

PKC = details: 5 μM HU-MCA-13
Text: as §1, §2, §3, §4, §5, §6, §7, §8, §9

ERK2 = molecular target: T9, ERK2 (Homo sapiens, UniProt P28482); details: 5 μM HU-MCA-13
T9 construct: ERK2, amino acids 1-360, Carna; purchased Carna 04-143
Text: as §1, §2, §3, §4, §5, §6, §7, §8, §9

FGFR 2 = molecular target: T10, FGFR 2 (Homo sapiens, UniProt P21802); details: 5 μM HU-MCA-13
T10 construct: purchased Carna 08-134
Text: as §1, §2, §3, §4, §5, §6, §7, §8, §9

EGFR = molecular target: T11, EGFR (Homo sapiens, UniProt P00533); details: 5 μM HU-MCA-13
T11 construct: amino acids 668-1210, BPS Bio (cat. & lot #: 40187,; purchased BPS Bio 40187
Text: as §1, §2, §3, §4, §5, §6, §7, §8, §9

TRKC = molecular target: T12, TRKC (Homo sapiens, UniProt Q16288); details: 5 μM HU-MCA-13; no effect on initial rate, small delay in later stage of progress curve
T12 construct: TRKC, amino acids 45 6-825, BPS Bio; purchased BPS Bio 40282 (lot 140205-G2)
Text: as §1, §2, §3, §4, §5, §6, §7, §8, §9

T6 sequence (P04629 442-796): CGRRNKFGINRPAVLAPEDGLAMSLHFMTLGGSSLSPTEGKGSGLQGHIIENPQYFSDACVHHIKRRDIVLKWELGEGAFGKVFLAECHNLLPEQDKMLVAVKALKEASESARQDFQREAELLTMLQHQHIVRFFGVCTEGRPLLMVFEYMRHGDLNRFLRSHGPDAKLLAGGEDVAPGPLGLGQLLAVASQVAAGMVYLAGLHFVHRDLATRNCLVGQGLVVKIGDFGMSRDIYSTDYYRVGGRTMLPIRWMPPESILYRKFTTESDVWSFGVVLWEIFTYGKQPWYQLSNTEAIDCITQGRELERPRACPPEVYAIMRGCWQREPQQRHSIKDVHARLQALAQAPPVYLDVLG
T12 sequence (Q16288 456-825 isoform Q16288-3 limits assumed): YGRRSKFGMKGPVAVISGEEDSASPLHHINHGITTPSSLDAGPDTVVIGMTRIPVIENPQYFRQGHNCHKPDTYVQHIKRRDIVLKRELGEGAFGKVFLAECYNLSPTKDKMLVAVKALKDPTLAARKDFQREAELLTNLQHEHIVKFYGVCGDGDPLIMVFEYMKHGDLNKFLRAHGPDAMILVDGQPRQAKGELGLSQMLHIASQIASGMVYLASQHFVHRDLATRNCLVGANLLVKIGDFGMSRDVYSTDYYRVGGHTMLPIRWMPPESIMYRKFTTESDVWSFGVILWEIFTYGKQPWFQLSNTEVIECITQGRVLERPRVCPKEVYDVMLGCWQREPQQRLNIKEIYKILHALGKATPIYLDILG
T10 sequence (P21802 399-821): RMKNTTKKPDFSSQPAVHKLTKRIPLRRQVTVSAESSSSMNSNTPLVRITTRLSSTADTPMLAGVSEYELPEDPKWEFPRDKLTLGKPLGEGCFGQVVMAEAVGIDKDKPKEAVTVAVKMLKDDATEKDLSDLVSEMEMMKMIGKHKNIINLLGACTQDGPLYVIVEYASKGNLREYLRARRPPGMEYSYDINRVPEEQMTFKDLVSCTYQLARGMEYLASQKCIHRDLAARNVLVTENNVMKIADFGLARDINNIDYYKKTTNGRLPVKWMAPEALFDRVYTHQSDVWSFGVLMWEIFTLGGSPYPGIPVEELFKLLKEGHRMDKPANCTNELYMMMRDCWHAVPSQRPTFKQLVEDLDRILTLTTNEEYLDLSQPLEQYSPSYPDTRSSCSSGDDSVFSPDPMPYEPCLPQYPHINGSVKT
T4 sequence (Q16620 456-822): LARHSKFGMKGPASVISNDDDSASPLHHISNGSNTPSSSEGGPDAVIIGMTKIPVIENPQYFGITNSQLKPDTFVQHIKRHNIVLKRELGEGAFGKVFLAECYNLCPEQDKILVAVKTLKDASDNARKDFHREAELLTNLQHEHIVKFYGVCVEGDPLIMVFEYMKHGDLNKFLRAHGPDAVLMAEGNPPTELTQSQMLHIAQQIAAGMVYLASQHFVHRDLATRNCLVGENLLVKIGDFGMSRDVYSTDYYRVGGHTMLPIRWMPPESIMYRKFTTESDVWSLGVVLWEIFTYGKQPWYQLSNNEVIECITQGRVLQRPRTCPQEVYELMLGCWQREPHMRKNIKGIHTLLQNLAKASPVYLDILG
T5 sequence (P49841 whole entry, the tested form may be a part): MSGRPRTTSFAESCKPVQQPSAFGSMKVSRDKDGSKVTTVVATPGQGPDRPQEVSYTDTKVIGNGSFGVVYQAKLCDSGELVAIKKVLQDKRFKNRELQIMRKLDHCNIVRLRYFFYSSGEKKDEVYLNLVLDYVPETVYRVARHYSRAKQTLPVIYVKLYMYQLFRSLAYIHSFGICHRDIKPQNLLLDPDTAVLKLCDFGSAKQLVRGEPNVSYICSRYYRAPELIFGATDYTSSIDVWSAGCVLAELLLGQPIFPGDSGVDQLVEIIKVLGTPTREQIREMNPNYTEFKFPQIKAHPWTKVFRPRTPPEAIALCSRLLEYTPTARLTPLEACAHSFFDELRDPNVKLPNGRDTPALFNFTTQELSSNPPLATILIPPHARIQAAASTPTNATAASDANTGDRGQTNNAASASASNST
T11 sequence (P00533 668-1210): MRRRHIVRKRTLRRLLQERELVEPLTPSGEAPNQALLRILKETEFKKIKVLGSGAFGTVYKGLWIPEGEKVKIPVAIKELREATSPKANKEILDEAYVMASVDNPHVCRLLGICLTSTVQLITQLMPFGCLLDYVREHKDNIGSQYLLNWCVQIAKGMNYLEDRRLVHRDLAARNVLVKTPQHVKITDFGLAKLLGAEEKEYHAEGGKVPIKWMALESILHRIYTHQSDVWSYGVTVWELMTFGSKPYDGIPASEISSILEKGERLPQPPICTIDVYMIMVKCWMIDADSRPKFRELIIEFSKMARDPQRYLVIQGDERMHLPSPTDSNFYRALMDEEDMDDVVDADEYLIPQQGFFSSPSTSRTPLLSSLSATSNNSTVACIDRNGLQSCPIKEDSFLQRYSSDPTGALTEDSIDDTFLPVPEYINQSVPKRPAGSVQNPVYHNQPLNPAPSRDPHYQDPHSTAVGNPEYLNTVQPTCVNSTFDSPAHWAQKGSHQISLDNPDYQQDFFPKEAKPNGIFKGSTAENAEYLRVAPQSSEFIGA
T1 sequence (Q00535 whole entry, the tested form may be a part): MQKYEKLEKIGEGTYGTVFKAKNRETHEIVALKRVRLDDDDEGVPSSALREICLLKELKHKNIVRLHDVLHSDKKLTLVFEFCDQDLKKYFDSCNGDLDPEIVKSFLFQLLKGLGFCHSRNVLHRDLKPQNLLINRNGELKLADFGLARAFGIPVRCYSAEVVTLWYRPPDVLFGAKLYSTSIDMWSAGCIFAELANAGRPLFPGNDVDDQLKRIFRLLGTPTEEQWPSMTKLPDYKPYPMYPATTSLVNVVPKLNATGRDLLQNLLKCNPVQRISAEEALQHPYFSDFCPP
T1 sequence (Q15078 99-307 partner limits assumed): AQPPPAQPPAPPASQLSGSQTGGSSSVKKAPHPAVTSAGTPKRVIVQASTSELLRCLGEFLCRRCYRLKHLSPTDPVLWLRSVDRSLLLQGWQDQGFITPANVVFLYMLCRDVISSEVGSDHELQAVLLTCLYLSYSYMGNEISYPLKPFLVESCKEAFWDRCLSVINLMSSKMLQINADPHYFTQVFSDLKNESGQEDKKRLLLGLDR
T3 sequence (P48730 1-294): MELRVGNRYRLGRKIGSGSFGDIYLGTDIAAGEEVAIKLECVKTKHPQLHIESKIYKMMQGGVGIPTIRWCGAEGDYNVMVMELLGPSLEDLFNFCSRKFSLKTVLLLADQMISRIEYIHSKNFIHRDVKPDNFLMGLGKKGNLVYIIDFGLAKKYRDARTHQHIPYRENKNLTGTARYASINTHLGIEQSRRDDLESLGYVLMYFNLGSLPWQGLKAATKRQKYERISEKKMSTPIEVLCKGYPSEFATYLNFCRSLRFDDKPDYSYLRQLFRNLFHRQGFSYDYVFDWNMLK
T7 sequence (P09619 557-1106): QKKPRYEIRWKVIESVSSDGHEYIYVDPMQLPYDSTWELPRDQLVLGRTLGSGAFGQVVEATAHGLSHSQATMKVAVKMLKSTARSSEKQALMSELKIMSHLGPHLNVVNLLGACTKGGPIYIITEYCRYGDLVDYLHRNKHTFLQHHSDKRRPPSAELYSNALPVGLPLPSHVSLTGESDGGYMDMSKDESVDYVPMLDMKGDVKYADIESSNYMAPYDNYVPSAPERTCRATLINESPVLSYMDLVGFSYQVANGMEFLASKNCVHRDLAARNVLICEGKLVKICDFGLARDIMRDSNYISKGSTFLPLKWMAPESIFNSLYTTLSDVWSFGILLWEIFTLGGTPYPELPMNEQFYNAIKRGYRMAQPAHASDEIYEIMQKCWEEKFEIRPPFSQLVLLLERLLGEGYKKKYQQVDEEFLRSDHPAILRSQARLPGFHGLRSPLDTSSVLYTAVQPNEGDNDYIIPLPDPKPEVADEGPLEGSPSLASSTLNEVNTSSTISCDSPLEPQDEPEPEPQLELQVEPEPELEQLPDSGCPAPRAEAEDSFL
T8 sequence (P08069 959-1367): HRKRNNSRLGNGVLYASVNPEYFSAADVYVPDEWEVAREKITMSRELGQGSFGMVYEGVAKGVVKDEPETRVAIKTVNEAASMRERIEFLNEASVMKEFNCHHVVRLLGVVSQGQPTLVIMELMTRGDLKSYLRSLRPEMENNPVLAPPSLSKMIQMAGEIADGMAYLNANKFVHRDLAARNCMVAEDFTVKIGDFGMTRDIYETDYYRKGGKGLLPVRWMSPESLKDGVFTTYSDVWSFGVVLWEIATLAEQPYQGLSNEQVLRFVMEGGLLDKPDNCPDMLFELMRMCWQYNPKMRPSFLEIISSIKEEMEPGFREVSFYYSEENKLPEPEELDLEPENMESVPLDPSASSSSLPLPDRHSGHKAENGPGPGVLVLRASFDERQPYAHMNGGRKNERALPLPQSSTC
T9 sequence (P28482 whole entry, the tested form may be a part): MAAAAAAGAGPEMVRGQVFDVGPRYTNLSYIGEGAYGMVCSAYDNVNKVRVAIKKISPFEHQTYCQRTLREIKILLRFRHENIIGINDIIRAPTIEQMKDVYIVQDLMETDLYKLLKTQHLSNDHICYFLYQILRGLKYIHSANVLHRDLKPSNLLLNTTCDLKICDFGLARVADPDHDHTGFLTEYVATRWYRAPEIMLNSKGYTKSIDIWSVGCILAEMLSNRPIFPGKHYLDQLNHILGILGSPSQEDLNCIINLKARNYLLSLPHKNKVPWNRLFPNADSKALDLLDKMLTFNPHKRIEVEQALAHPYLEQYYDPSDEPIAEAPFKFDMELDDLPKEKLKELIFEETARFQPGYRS

C=CCC1CCCC(CCC(=O)O)C1=C (stereo not shown) [HU-MCA-13, 3-(3-allyl-2-methylenecyclohexyl)propanoic acid]
no effects: effect on kinase activity (CDK5) | effect on kinase activity (CAMK2α) | effect on kinase activity (CK1) | modulation of phosphorylation activity (TRK B) | effect on kinase activity (GSK3β) | modulation of phosphorylation activity (TRKA) | effect on kinase activity (PDGFRβ) | effect on kinase activity (IGF1R) | effect on kinase activity (PKC) | effect on kinase activity (ERK2) | effect on kinase activity (FGFR 2) | effect on kinase activity (EGFR)
slight inhibitory effect: modulation of phosphorylation activity (TRKC)
